Measured values published in patent publication US20200297820A1, “STIMULATION OF HUMAN MEIBOMIAN GLAND FUNCTION” (The Schepens Eye Research Institute, Inc., priority 2013, published 2020).

How the values were obtained:
[1] = topical 0.5, 1.0 and 1.5% AZM eye drops, for 24 hours; cited from earlier work
[2] = test system: human meibomian gland epithelial cells; assay: Transmission electron microscopy of lysosomal lamellar bodies; format: cell-based; settings: 10 μg/ml, 5 days
From the text: (§1) Cell numbers were enumerated with a hemocytometer. Cellular lipid and lysosome accumulation were examined by staining cells with: Filipin III (a fluorometric probe for identifying unesterified cholesterol), LipidTOX green neutral lipid stain, and LysoTracker® Red DND-99 (a fluorescent technique designed for labeling acidic organelles such as lysosomes). Lysosomal lamellar bodies were identified by transmission electron microscopy. In brief, after culture and treatment on 24 mm polycarbonate membrane transwell inserts (0.4 μm pore size), cells were fixed in a solution of 2% formaldehyde+2.5% glutaraldehyde, in 0.08 M sodium cacodylate buffer, pH 7.4, post-fixed with 2% osmium tetroxide in 0.1 M sodium cacodylate buffer, and stained en bloc with 2% aqueousuranyl acetate. Samples were then dehydrated in graded ethyl alcohol solutions and embedded by using the tEPON-812 epoxy resin kit. Cross sections (1 μM) were stained with 1% toluidine blue in 1% sodium tetraborate solution. Ultra-thin sections (60-90 nm) were imaged with a transmission electron microscope interfaced with a digital CCD camera. For biochemical assessments, cellular lipids were extracted with chloroform and methanol from samples with the same amount of protein. Lipids were then evaluated with high-performance thin-layer chromatography. […] Image data were quantified with ImageJ (http://rsbweb.nib.gov/ij/index.html). […]

[3] = test system: immortalized human meibomian gland epithelial cells; assay: Cellular morphology (terminal maturation, holocrine-like secretion); format: cell-based; settings: azithromycin 10 μg/ml
Experimental: As an example of these experiments, immortalized human meibomian gland epithelial cells were cultured in the presence or absence of 10% fetal bovine serum. Cells were treated with an ethanol vehicle or azithromycin (10 μg/ml; Santa Cruz Biotechnology) for varying time periods. Cellular morphological appearance was recorded, cells were counted with a hemocytometer, and lipid accumulation was assessed by staining the cells with LipidTOX green neutral lipid stain (Invitrogen, Grand Island, N.Y.), according to reported methods. Staining fluorescent intensities were quantified by using ImageJ (http://rsbweb.nih.gov/ij/index.html). Statistical analyses were performed with Student's t-test (two-tailed, unpaired). Immortalized human meibomian gland epithelial cells ([…]; passages 20-22) were cultured in the presence or absence of 10% fetal bovine serum. Cells were treated with the ethanol vehicle or azithromycin (10 μg/mL) for varying periods. Cellular morphological appearance was recorded, cells were counted with a hemocytometer, and lipid accumulation was assessed by staining cells with LipidTOX green neutral lipid stain (Invitrogen Corp). Staining fluorescent intensities were quantified using ImageJ software (http://rsbweb.nih.gov/ij/index.html). Statistical analyses were performed with t test (2-tailed, unpaired).

[4] = test system: human meibomian gland epithelial cells; assay: Filipin III staining of free (unesterified) cholesterol; format: cell-based; settings: 10 μg/ml, 5 days
Experimental: This section outlines the materials and methods that produced the experimental data. Immortalized human meibomian gland epithelial cells were cultured in the presence or absence of 10% fetal bovine serum. After reaching 80-90% confluence (˜5×10^6/well), cells were exposed to the vehicle (0.02% ethanol) or azithromycin (10 μg/ml) for 5 days and then processed for histological and biochemical procedures.
as §1, with “Samples were then dehydrated in graded ethyl alcohol solutions and embedded by using the tEPON-812 epoxy resin kit. Cross sections (1 μM) were stained with 1% toluidine blue in 1% sodium tetraborate solution. Ultra-thin sections (60-90 nm) were imaged with a transmission electron microscope interfaced with a digital CCD camera. For biochemical assessments, cellular lipids were extracted with chloroform and methanol from samples with the same amount of protein.” left out

[5] = test system: LNCaP cells; assay: Immunoblot of JAK2/STAT5 pathway in positive control cells; format: cell-based
Experimental: The disclosure turns now to sodium dodecyl sulfate-polyacrylamide gel, electrophoresis, and immunoblots. Cells were directly lysed in Laemmli buffer supplemented with 1% protease inhibitor cocktail (Sigma-Aldrich) and 5% β-mercaptoethanol (Sigma-Aldrich). Lysates were heated at 95° C. for 10 minutes, separated by sodium dodecyl sulfate-polyacrylamide gel electrophoresis on 10% Tris-glycine precast gels, and transferred to polyvinylidene difluoride membranes. Rabbit or mouse antibodies used were specific for phosphorylated Akt (p-Akt), pan-Akt, p-FoxO1, FoxO1, p-JAK2, JAK2, and β-actin; for p-ERK, ERK-2, STAT5, and the precursor form of SREBP-1; and for p-STAT5. Membranes were blocked with 5% bovine serum albumin in Tris-buffered saline containing 0.01% polysorbate 20. All primary antibodies were diluted to 1:1000 in blocking buffer except for p-Akt (1:4000), p-ERK (1:2000), ERK-2 (1:4000), SREBP-1 (1:200), and β-actin (1:10 000). Horseradish peroxidase-conjugated secondary antibodies were goat anti-rabbit IgG and Fc-specific goat anti-mouse IgG diluted to 1:5000. […]
FIGS. 9a, 9b, and 9c illustrate the effects of insulin-like growth factor 1 (IGF-1) and growth hormone (GH) on signaling pathways in human meibomian gland epithelial cells. […] Cell lysates were evaluated on immunoblotting. […]

[6] = test system: immortalized human meibomian gland cells; assay: 13-cis RA-induced late apoptosis/necrosis; format: cell-based

CC[C@H]1OC(=O)[C@H](C)[C@@H](O[C@H]2C[C@@](C)(OC)[C@@H](O)[C@H](C)O2)[C@H](C)[C@@H](O[C@@H]2O[C@H](C)C[C@H](N(C)C)[C@H]2O)[C@](C)(O)C[C@@H](C)CN(C)[C@H](C)[C@@H](O)[C@]1(C)O [Azithromycin]
tear concentration [1]: above 7 μg/ml
lysosomal lamellar bodies [2]: many of these lysosomes appear to be onion-shaped lamellar bodies
terminal maturation and holocrine-like secretion [3]: promote terminal maturation
accumulation of free cholesterol (Filipin) [4]: significantly stimulates the accumulation

GH: human growth hormone
activation of JAK2/STAT5 pathway [5]: activated the JAK2/STAT5 pathway

IGF-1: recombinant human insulin-like growth factor 1
13-cis RA-induced late apoptosis/necrosis [6]: attenuates
